Assay results as given in US7696208B2, “Therapeutic agents useful for treating pain” (Purdue Pharma L.P., priority 2003, dated 2010).

Assays:
human VR1 [1] = target: T1, human VR1 (Homo sapiens, UniProt Q8NER1); test: pH-based assay (FLIPR calcium influx, inducible HEK293-EcR cells expressing human VR1); assay type: cell-based; settings: agonist buffer giving pH 5.5, HEK293-EcR cells induced with 5 μM PonA, Fluo-4, FLIPR, n=5
T1 construct: expressed in transfected cells; host or cells: HEK293-EcR cells, expression induced with ponasterone A
T1 sequence (Q8NER1 whole entry): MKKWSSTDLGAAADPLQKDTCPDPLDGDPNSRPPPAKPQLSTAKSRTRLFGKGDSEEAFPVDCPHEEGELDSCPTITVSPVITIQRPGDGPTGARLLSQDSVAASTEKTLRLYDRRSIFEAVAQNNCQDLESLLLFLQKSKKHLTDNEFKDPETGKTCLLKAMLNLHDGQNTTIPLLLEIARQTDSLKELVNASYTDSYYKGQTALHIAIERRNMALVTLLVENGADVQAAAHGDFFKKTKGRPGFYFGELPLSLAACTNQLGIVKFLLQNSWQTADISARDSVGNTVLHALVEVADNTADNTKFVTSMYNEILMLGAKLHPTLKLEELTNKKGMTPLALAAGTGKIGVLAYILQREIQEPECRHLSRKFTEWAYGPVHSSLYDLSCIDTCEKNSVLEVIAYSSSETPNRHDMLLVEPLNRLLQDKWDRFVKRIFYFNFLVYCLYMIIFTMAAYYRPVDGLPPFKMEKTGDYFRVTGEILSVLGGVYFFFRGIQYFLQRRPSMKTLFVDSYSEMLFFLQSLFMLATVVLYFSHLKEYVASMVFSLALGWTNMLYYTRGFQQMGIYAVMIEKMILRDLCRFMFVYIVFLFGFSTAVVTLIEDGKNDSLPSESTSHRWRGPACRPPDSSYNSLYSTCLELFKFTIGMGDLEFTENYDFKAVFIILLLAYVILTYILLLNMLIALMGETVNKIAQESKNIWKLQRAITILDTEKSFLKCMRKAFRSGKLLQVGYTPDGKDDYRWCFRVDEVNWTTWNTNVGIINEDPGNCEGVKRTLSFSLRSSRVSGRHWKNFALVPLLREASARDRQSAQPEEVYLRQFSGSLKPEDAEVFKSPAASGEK
Description: (§1) Human VR1 Cloning: Human spinal cord RNA (commercially available from Clontech, Palo Alto, Calif.) was used. Reverse transcription was conducted on 1.0 μg total RNA using Thermoscript Reverse Transcriptase (commercially available from Invitrogen, Carlsbad, Calif.) and oligo dT primers as detailed in its product description. Reverse transcription reactions were incubated at 55° C. for 1 h, heat-inactivated at 85° C. for 5 min, and RNase H-treated at 37° C. for 20 min.
(§2) Human VR1 cDNA sequence was obtained by comparison of the human genomic sequence, prior to annotation, to the published rat sequence. Intron sequences were removed and flanking exonic sequences were joined to generate the hypothetical human cDNA. Primers flanking the coding region of human VR1 were designed as follows: forward primer, […]; and reverse primer, […]. […]
(§3) Generation of Inducible Cell Lines: Unless noted otherwise, cell culture reagents were purchased from Life Technologies of Rockville, Md. […] On the day of assay, cells were loaded with Fluo-4 (a calcium-sensitive dye that is commercially available from Molecular Probes, Eugene, Oreg.) and CAP-mediated calcium influx was measured using a FLIPR as described below. […]

human VR1 [2] = target: T1, human VR1; test: Capsaicin-based assay (FLIPR calcium influx, inducible HEK293-EcR cells expressing human VR1); assay type: cell-based; settings: activation by 50 μL of capsaicin (400 nM), HEK293-EcR cells induced with 5 μM PonA, Fluo-4, FLIPR, n=3
Description: as §1, §2, §3

`O=C(NCCc1ccccc1)N1CCN(c2ncccc2C(F)(F)F)CC1` [Compound A19] showed an IC50 (human VR1 [1]) of 808 ± 254 nM and an IC50 (human VR1 [2]) of 382 ± 64.2 nM.
